Laboratory results taken from patent publication US8338420B1, “Treatment of Parkinson's disease and enhancement of dopamine signal using PDE 10 inhibitor” (Mitsubishi Tanabe Pharma Corporation, priority 2002, dated 2012).

Key:
PDE7 (PDE7A) = target: T1, PDE7 (PDE7A) (Homo sapiens, UniProt Q13946); experiment: PDE assay, recombinant human PDE7A; type: biochemical; details: substrate about 4.8 nM [3H]-cAMP and 0.1 μM cAMP
T1 construct: His tag (hexahistidine, pcDNA4/HisMax) (N); made in house
Excerpt: Based on the information of cDNA sequence of human PDE7A (Genbank/EMBL Accession No. NM002603), a cDNA encoding human PDE7A was cloned by PCR method, according to a method described in Sasaki et al. (Sasaki et al., Biochem. Biophys. Res. Commun., vol. 271, pp. 575-583, 2000). Further, based on the information of cDNA sequence of human PDE8A (Genbank/EMBL Accession No. AF388183), a cDNA encoding human PDE8A was cloned by PCR method, according to a method described in Gamanuma et al. (Gamanuma et al., Cell Signal, 2003, vol. 15, pp. 565-574). Further, a cDNA encoding human PDE11A was obtained, according to a method reported in Yuasa et al. (Yuasa et al., J. Biol. Chem., vol. 275, pp. 31469-31479, 2000). Using these cDNAs, recombinant proteins of human PDE7A, human PDE8A, and human PDE11A were prepared as follows.
DNA fragments comprising a cDNA encoding human PDE7A, human PDE8A or human PDE11A were linked to pcDNA4/HisMax (available from Invitrogen), to give a vector plasmid for expression of human proteins, with a histidine tag peptide (hexahistidine), added to the N-terminus. COS-7 cells were transfected with these vector plasmids, and the cells were cultured in Dulbecco's modified Eagle medium containing 10% bovine fetal serum for about 24 hours. […]

[1] = test system: neurons of corpus striatum; experiment: Change in intracellular cAMP in primary cultured neurons of corpus striatum; type: cell-based, Wistar rat
Protocol: (1) Primary culture of neurons of corpus striatum Female Wistar rats on day 14 or day 15 of pregnancy were purchased from Japan SLC, Co. Ltd., and fetuses were taken out on day 18 of pregnancy. From the fetus, the brain was excised, and stored on ice-cold Leibovitz's L-15 medium (available from GIBCO) or on DMEM/F-12 medium (available from GIBCO). In the same medium, dura matter was removed and corpus striatum was collected. This striatum part was treated by trypsin to diffuse neurons, and the neurons were diluted and diffused in DMEM medium containing 10% bovine fetal serum. These neurons were inoculated in 48-well plate coated with 0.01% poly-L-lysine (available from Sigma) (2×10^5 cells/well) and cultured. On the next day, the medium was changed to Neurobasal medium (available from GIBCO), containing 50 fold-diluted B-27 supplement (available from GIBCO), and then, half of the medium was replaced on day 4, 7 and 9 of culture, to continue culture.
As in the above (1), neurons were cultured, and on day 10 of culture, the medium was removed, and then, a test compound (PDE10 inhibitors, etc.) diluted with Hank's balanced salt solution were added, and incubated at 37° C. for 15 minutes. Following that, forskolin (final concentration of 1 μM) or dopamine (final concentration of 100 nM) or D1 agonist (SKF82958 Sigma) (final concentration of 3 nM, 10 nM, 30 nM) was added thereto, and further incubated at 37° C. for 15 minutes.
Intracellular cAMP was measured using cAMP EIA kit available from Amersham Biosciences. Accordingly, after removing the reaction mixture, lysis buffer 1B (attached to cAMP EIA kit) was added to stop the reaction, and to lead cytolysis, and intracellular cAMPs were extracted. An amount of cAMPs in the extract was measured according to a protocol attached to the cAMP EIA kit.

T1 sequence (Q13946 1-456 isoform Q13946-2): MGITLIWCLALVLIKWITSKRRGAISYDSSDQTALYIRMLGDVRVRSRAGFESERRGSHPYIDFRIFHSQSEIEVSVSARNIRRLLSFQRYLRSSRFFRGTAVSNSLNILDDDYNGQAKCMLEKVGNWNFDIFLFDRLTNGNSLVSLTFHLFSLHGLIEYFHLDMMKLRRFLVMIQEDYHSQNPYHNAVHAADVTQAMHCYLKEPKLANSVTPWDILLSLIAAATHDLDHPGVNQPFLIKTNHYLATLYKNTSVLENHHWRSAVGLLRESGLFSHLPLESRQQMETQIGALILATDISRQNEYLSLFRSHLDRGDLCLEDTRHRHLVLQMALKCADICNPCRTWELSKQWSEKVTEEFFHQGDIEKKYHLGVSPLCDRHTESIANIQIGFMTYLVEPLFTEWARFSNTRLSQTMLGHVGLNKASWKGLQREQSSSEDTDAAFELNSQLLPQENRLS

- IC50 (PDE7 (PDE7A)): > 1 µM
Compound: COc1ccc(-c2cc(N3CCCC3)nc(/C=C/c3nc(-n4ccnc4)c4ccccc4n3)n2)cc1OC [Compound A, 2-{(E)-2-[4-(1-imidazolyl)-quinazolin-2-yl]}ethenyl-4-(3,4-dimethoxy)phenyl-6-(pyrrolidin-1-yl)pyrimidine]
- intracellular cAMP increase caused by dopamine stimulus in neuron ([1]; compound concentration 1 μM, dopamine 100 nM): enhanced intracellular cAMP increase caused by dopamine stimulus
- intracellular cAMP increase caused by D1 agonist (SKF82958) stimulus in neuron ([1]; compound concentration 10 μM, 1 μM): enhanced intracellular cAMP increase caused by D1 agonist
- intracellular cAMP increase caused by forskolin stimulus in neuron ([1]; compound concentration 10 μM, 1 μM, forskolin 1 μM): enhanced intracellular cAMP increase caused by forskolin stimulus
